Measurements: article PMC11583740, “Genotype-specific effects of elamipretide in patients with primary mitochondrial myopathy: a post hoc analysis of the MMPOWER-3 trial” (Orphanet Journal of Rare Diseases, 2024)

What was measured:
[1] = test system: adult patients with primary mitochondrial myopathy (PMM); assay: Six-Minute Walk Test (6MWT) in the MMPOWER-3 Phase 3 trial, post hoc analysis by genotype; assay type: in vivo, human
Description: Full details of MMPOWER-3 have been previously described. In brief, MMPOWER-3 was a 24-week, randomized (1:1), double-blind, parallel-group, placebo-controlled clinical trial for adult patients with PMM, in which subjects received elamipretide 40 mg subcutaneously once daily or placebo [6]. In the original analysis of MMPOWER-3, subjects were stratified by the type of pathogenic DNA variant (nDNA vs mtDNA) determined to be the primary cause of PMM as approved by the adjudication committee. Pathogenic DNA variants causing PMM were subclassified as causing mtDNA or nDNA disorders. The prespecified exploratory analysis was conducted to further examine the effects of elamipretide on the change from baseline to week 24 in the 6MWT by genetic subgroups. Subject demographics at baseline have been previously published in detail.
In the original analysis of MMPOWER-3, the efficacy of elamipretide was analyzed by genetic pathogenic variant subclass (mtDNA vs. nDNA) utilizing a mixed model repeated measures (MMRM). In the new exploratory analysis, the effect of elamipretide on the least squares (LS) mean change from baseline in distance walked on the 6MWT at 4 weeks, 12 weeks, and end of treatment (week 24) was examined as a function of gene variants using subjects from the MMPOWER-3 per-protocol population who successfully completed the trial. The analysis evaluated 6MWT results by specific mtDNA and nDNA genotypes. Efficacy in the mtDNA replisome subgroup was further assessed by the presence of the chronic progressive external ophthalmoplegia (CPEO) as a phenotype.

[2] = test system: adult patients with primary mitochondrial myopathy (PMM); settings: elamipretide 40 mg s.c. once daily; nDNA cohort n = 59; placebo 0.3 m; p = 0.03; previously published post-hoc analysis; cited from earlier work
Text: Baseline functional characteristics of these patients is described elsewhere. At week 24, subjects in ...

[3] = test system: subjects with Barth Syndrome; settings: after approximately 36 weeks in the 168-week open-label phase; n = 8; p = 0.02; cited from earlier work
Text: NuPOWER was designed to evaluate the efficacy and tolerability of elamipretide in nPMD subjects, with the primary efficacy endpoint being distance walked (meters) on the 6MWT [11]. Elamipretide was also studied in subjects with Barth Syndrome (TAZPOWER, SPIBA-201, NCT03098797), which ...

[4] = test system: adult patients with primary mitochondrial myopathy (PMM); settings: post-hoc genetic subgroup analysis of the co-primary endpoint; previously published; cited from earlier work
Description: Elamipretide is the first experimental therapeutic compound progressing to a Phase 3 clinical trial in patients with PMM (MMPOWER-3). This trial followed the Phase 1/2 (MMPOWER-1) and Phase 2 (MMPOWER-2) clinical trials, in which treatment with elamipretide was analyzed in patients with PMM.

elamipretide
6MWT change from baseline, MT-TL1 pathogenic variants ([1]; elamipretide 40 mg s.c. once daily, 24 weeks, n = 21, placebo (n = 28) 42.4 m): 25.3 m | 6MWT improvement (change from baseline), mtDNA replisome post-hoc cohort ([1]; elamipretide 40 mg s.c. once daily, mtDNA replisome cohort, placebo 2.0 ± 8.6 m, p = 0.06): 25.2 ± 8.7 m | LS mean (SE) change from baseline in 6MWT, replisome variants with CPEO phenotype ([1]; elamipretide 40 mg s.c. once daily, week 24, n = 18, baseline mean 316.5 ± 17.5, placebo (n = 14) −8.0 ± 10.7 m, p = 0.0024): 37.3 ± 9.5 m | LS mean (SE) change from baseline in distance walked on 6MWT, mtDNA pathogenic variants ([1]; elamipretide 40 mg s.c. once daily, week 24, n = 73, placebo (n = 73) 24.1 ± 6.3 m): 14.9 ± 6.4 m | Between-group difference in 6MWT change, mtDNA pathogenic variants ([1]; week 24, elamipretide vs placebo, difference in favor of placebo): 9.2 m | 6MWT difference elamipretide vs placebo, single mtDNA deletions ([1]; week 24, n = 49): no observable differences | 6MWT improvement, nDNA cohort [2]: 25.2 m | Improvement in 6MWT, Barth Syndrome [3]: 95.9 m | PMMSA TFS, nDNA cohort compared with mtDNA cohort [4]: did not demonstrate a differential effect
